# In US7423032B2, “Method for treating severe heart failure and medicament therefor” (Otsuka Pharmaceutical Co., Ltd., priority 2003, dated 2008):
# Legend:
# Format in all cases: in vivo, human patients
# [1] = Total urine output in patients treated with (A), placebo-controlled Phase IIB study; parameters: Total urine output: unit not given here
# Method: (§1) To patients of severe heart failure (i.e., patient in acute heart failure or chronic heart failure in acute exacerbation, New York Heart Association Class III and IV) was administered 5-hydroxy-7-chloro-1-[2-methyl-4-(2-methylbenzoylamino)benzoyl]-2,3,4,5-tetrahydro-1H-benzazepine at a dose of 30, 60 or 90 mg/day for a period of 60 days, which period began from the duration of hospitalization to after being discharged from hospital (details thereof are shown in Table 1).
# (§2) As to the statistical analysis, the data in Table 2 was analyzed by ANOVA method, and the data in Tables 3 and 4 were analyzed by ANCOVA method, and the data in Table 5 was analyzed by Log-Rank test.
# (§3) When the dosages in this experiment were converted to a daily dose per 1 kg of body weight, they were 0.371±0.096 mg/kg (n=77) in the 30 mg-treated group, 0.769±0.205 mg/kg (n=83) in the 60 mg-treated group, and 1.149±0.283 mg/kg (n=76) in the 90 mg-treated group (all in mean±SD).
# [2] = Mean change in body weight from baseline in patients treated with (A); parameters: Mean change in body weight from baseline: unit not given here
# Method: as §1, §2, §3
# [3] = Serum sodium concentration in patients of hyponatremia at baseline treated with (A); details: for Serum sodium concentration: mean ± SD
# Method: as §1
# As to the statistical analysis, the data in Table 2 was analyzed by ANOVA method, and the data in Tables 3 and 4 were analyzed by ANCOVA method, and the data in Table 5 was analyzed by Log-Rank test. […]
# [4] = tested on: patients of severe heart failure; test: Mortality of the patients treated with (A); details: for Mortality Event Rate (%): placebo 8.7%; for Number off Death: on therapy up to 60 days
# Method: as §1, §2
# [5] = Adverse events (urinary frequency) in patients treated with (A); details: for Urinary Frequency Event Rate (%): placebo 1.3%
# Method: as §1
# (§4) In addition, in the group treated with the lowest dose of 30 mg, the urinary frequency event rate as an adverse experience was lower (Table 6), and the discontinued rate due to adverse experiences was lower (Table 7), as compared with the data of the groups treated with higher doses.
# [6] = Discontinued cases due to adverse experiences in patients treated with (A); details: for Discontinuation due to Adverse Experience Event Rate (%): placebo 15.0%
# Method: as §1, §4
# [7] = 30 mg/day oral, 78 patients randomized
# [8] = 60 mg/day oral, 84 patients randomized
# [9] = 90 mg/day oral, 77 patients randomized
# [10] = 30 mg group compared with groups treated with higher doses
structure (smiles),measurement,setting,value
"Cc1ccccc1C(=O)Nc1ccc(C(=O)N2CCCC(O)c3cc(Cl)ccc32)c(C)c1 (stereo not drawn) [(A), 5-hydroxy-7-chloro-1-[2-methyl-4-(2-methylbenzoylamino)benzoyl]-2,3,4,5-tetrahydro-1H-benzazepine]",total urine output (in words),[1]; 30 mg-treated group,increased
same,Total urine output,"[1]; 30 mg/day oral, Day 1, mean ± SD, n=73",4056.16 ± 2310.23
same,Total urine output,"[1]; 30 mg/day oral, Day 2, mean ± SD, n=67",3905.61 ± 1942.03
same,Total urine output,"[1]; 30 mg/day oral, Day 3, mean ± SD, n=52",3579.04 ± 1867.86
same,Total urine output,"[1]; 30 mg/day oral, Day 6, mean ± SD, n=33",3146.67 ± 1618.09
same,Total urine output,"[1]; 30 mg/day oral, Day 7, mean ± SD, n=16",2662.81 ± 1507.51
same,Total urine output,"[1]; 30 mg/day oral, Day 9, mean ± SD, n=5",2908.00 ± 475.59
same,Total urine output,"[1]; 60 mg/day oral, Day 1, mean ± SD, n=82",4175.15 ± 2695.44
same,Total urine output,"[1]; 60 mg/day oral, Day 2, mean ± SD, n=74",3699.26 ± 2094.02
same,Total urine output,"[1]; 60 mg/day oral, Day 3, mean ± SD, n=54",3420.41 ± 1902.77
same,Total urine output,"[1]; 60 mg/day oral, Day 6, mean ± SD, n=32",3684.56 ± 2472.45
same,Total urine output,"[1]; 60 mg/day oral, Day 7, mean ± SD, n=17",4230.00 ± 1691.43
same,Total urine output,"[1]; 60 mg/day oral, Day 9, mean ± SD, n=11",3753.18 ± 2415.48
same,Total urine output,"[1]; 90 mg/day oral, Day 1, mean ± SD, n=73",4127.27 ± 2050.81
same,Total urine output,"[1]; 90 mg/day oral, Day 2, mean ± SD, n=64",3961.73 ± 2129.11
same,Total urine output,"[1]; 90 mg/day oral, Day 3, mean ± SD, n=50",4069.32 ± 2306.07
same,Total urine output,"[1]; 90 mg/day oral, Day 6, mean ± SD, n=30",4188.23 ± 2275.15
same,Total urine output,"[1]; 90 mg/day oral, Day 7, mean ± SD, n=17",3915.12 ± 2101.53
same,Total urine output,"[1]; 90 mg/day oral, Day 9, mean ± SD, n=7",2421.43 ± 1391.12
same,body weight (in words),[2]; 30 mg-treated group,decreased
same,Mean change in body weight from baseline,"[2]; 30 mg/day oral, Day 1, mean ± SD, n=76",−2.14 ± 2.63
same,Mean change in body weight from baseline,"[2]; 30 mg/day oral, Day 2, mean ± SD, n=63",−3.49 ± 3.80
same,Mean change in body weight from baseline,"[2]; 30 mg/day oral, Day 3, mean ± SD, n=49",−4.78 ± 4.14
same,Mean change in body weight from baseline,"[2]; 30 mg/day oral, Discharge, mean ± SD, n=76",−4.37 ± 4.69
same,Mean change in body weight from baseline,"[2]; 30 mg/day oral, Last Visit, mean ± SD, n=76",−2.42 ± 5.37
same,Mean change in body weight from baseline,"[2]; 30 mg/day oral, outpatient Week 1, mean ± SD, n=65",−2.71 ± 4.93
same,Mean change in body weight from baseline,"[2]; 30 mg/day oral, outpatient Week 7, mean ± SD, n=54",−2.12 ± 5.16
same,Mean change in body weight from baseline,"[2]; 60 mg/day oral, Day 1, mean ± SD, n=76",−2.10 ± 1.80
same,Mean change in body weight from baseline,"[2]; 60 mg/day oral, Day 2, mean ± SD, n=65",−3.03 ± 2.48
same,Mean change in body weight from baseline,"[2]; 60 mg/day oral, Day 3, mean ± SD, n=47",−3.93 ± 3.33
same,Mean change in body weight from baseline,"[2]; 60 mg/day oral, Discharge, mean ± SD, n=82",−4.60 ± 4.67
same,Mean change in body weight from baseline,"[2]; 60 mg/day oral, Last Visit, mean ± SD, n=82",−3.60 ± 6.38
same,Mean change in body weight from baseline,"[2]; 60 mg/day oral, outpatient Week 1, mean ± SD, n=59",−2.73 ± 5.45
same,Mean change in body weight from baseline,"[2]; 60 mg/day oral, outpatient Week 7, mean ± SD, n=54",−2.87 ± 6.67
same,Mean change in body weight from baseline,"[2]; 90 mg/day oral, Day 1, mean ± SD, n=74",−1.90 ± 2.87
same,Mean change in body weight from baseline,"[2]; 90 mg/day oral, Day 2, mean ± SD, n=61",−2.84 ± 3.16
same,Mean change in body weight from baseline,"[2]; 90 mg/day oral, Day 3, mean ± SD, n=45",−2.65 ± 4.22
same,Mean change in body weight from baseline,"[2]; 90 mg/day oral, Discharge, mean ± SD, n=76",−3.75 ± 4.18
same,Mean change in body weight from baseline,"[2]; 90 mg/day oral, Last Visit, mean ± SD, n=76",−2.39 ± 5.20
same,Mean change in body weight from baseline,"[2]; 90 mg/day oral, outpatient Week 1, mean ± SD, n=53",−3.23 ± 4.46
same,Mean change in body weight from baseline,"[2]; 90 mg/day oral, outpatient Week 7, mean ± SD, n=53",−2.23 ± 5.19
same,Serum sodium concentration,"[3]; 30 mg group, Baseline, patients of hyponatremia at baseline, n=15",132.13 ± 3.44 mEq/L
same,Serum sodium concentration,"[3]; 30 mg/day oral, Day 1, patients of hyponatremia at baseline, n=15",136.00 ± 3.96 mEq/L
same,Serum sodium concentration,"[3]; 30 mg/day oral, Day 2, patients of hyponatremia at baseline, n=11",135.09 ± 5.07 mEq/L
same,Serum sodium concentration,"[3]; 30 mg/day oral, Day 3, patients of hyponatremia at baseline, n=8",135.13 ± 5.38 mEq/L
same,Serum sodium concentration,"[3]; 30 mg/day oral, Discharge, patients of hyponatremia at baseline, n=15",136.13 ± 4.61 mEq/L
same,Serum sodium concentration,"[3]; 30 mg/day oral, Last Visit, patients of hyponatremia at baseline, n=15",137.00 ± 5.04 mEq/L
same,Serum sodium concentration,"[3]; 30 mg/day oral, outpatient Week 1, patients of hyponatremia at baseline, n=12",138.25 ± 4.22 mEq/L
same,Serum sodium concentration,"[3]; 30 mg/day oral, outpatient Week 7, patients of hyponatremia at baseline, n=10",137.60 ± 4.65 mEq/L
same,Serum sodium concentration,"[3]; 60 mg group, Baseline, patients of hyponatremia at baseline, n=22",130.86 ± 4.00 mEq/L
same,Serum sodium concentration,"[3]; 60 mg/day oral, Day 1, patients of hyponatremia at baseline, n=22",135.77 ± 6.16 mEq/L
same,Serum sodium concentration,"[3]; 60 mg/day oral, Day 2, patients of hyponatremia at baseline, n=17",137.29 ± 3.02 mEq/L
same,Serum sodium concentration,"[3]; 60 mg/day oral, Day 3, patients of hyponatremia at baseline, n=13",138.62 ± 4.44 mEq/L
same,Serum sodium concentration,"[3]; 60 mg/day oral, Discharge, patients of hyponatremia at baseline, n=22",137.18 ± 4.56 mEq/L
same,Serum sodium concentration,"[3]; 60 mg/day oral, Last Visit, patients of hyponatremia at baseline, n=22",136.18 ± 5.94 mEq/L
same,Serum sodium concentration,"[3]; 60 mg/day oral, outpatient Week 1, patients of hyponatremia at baseline, n=16",136.88 ± 5.82 mEq/L
same,Serum sodium concentration,"[3]; 60 mg/day oral, outpatient Week 7, patients of hyponatremia at baseline, n=11",139.36 ± 4.76 mEq/L
same,Serum sodium concentration,"[3]; 90 mg group, Baseline, patients of hyponatremia at baseline, n=15",133.07 ± 2.52 mEq/L
same,Serum sodium concentration,"[3]; 90 mg/day oral, Day 1, patients of hyponatremia at baseline, n=15",137.13 ± 4.82 mEq/L
same,Serum sodium concentration,"[3]; 90 mg/day oral, Day 2, patients of hyponatremia at baseline, n=15",137.00 ± 4.60 mEq/L
same,Serum sodium concentration,"[3]; 90 mg/day oral, Day 3, patients of hyponatremia at baseline, n=11",136.45 ± 4.59 mEq/L
same,Serum sodium concentration,"[3]; 90 mg/day oral, Discharge, patients of hyponatremia at baseline, n=15",137.13 ± 3.02 mEq/L
same,Serum sodium concentration,"[3]; 90 mg/day oral, Last Visit, patients of hyponatremia at baseline, n=15",136.60 ± 5.17 mEq/L
same,Serum sodium concentration,"[3]; 90 mg/day oral, outpatient Week 1, patients of hyponatremia at baseline, n=8",136.13 ± 3.64 mEq/L
same,Serum sodium concentration,"[3]; 90 mg/day oral, outpatient Week 7, patients of hyponatremia at baseline, n=6",138.00 ± 5.73 mEq/L
same,serum sodium concentration (in words),[3]; patients of hyponatremia at baseline (less than 136 mEq/L),increase of serum sodium concentration
same,mortality rate vs control group (in words),"[4]; 30 mg-treated group, entire period, Log-Rank test",significantly lower
same,Mortality Event Rate (%),[4]; [7],3.8%
same,Number off Death,[4]; [7],3
same,Mortality Event Rate (%),[4]; [8],9.5%
same,Number off Death,[4]; [8],8
same,Mortality Event Rate (%),[4]; [9],2.5%
same,Number off Death,[4]; [9],2
same,urinary frequency event rate as an adverse experience (in words),[5]; [10],lower
same,Adverse Event Urinary Frequency (number of patients),"[5]; 30 mg/day oral, 78 patients",1
same,Urinary Frequency Event Rate (%),"[5]; 30 mg/day oral, 78 patients",1.3%
same,Adverse Event Urinary Frequency (number of patients),"[5]; 60 mg/day oral, 84 patients",3
same,Urinary Frequency Event Rate (%),"[5]; 60 mg/day oral, 84 patients",3.6%
same,Adverse Event Urinary Frequency (number of patients),"[5]; 90 mg/day oral, 76 patients",4
same,Urinary Frequency Event Rate (%),"[5]; 90 mg/day oral, 76 patients",5.3%
same,discontinued rate due to adverse experiences (in words),[6]; [10],lower
same,Discontinued cases due to Adverse Experience (number),[6]; [7],14
same,Discontinuation due to Adverse Experience Event Rate (%),[6]; [7],17.9%
same,Discontinued cases due to Adverse Experience (number),[6]; [8],25
same,Discontinuation due to Adverse Experience Event Rate (%),[6]; [8],29.8%
same,Discontinued cases due to Adverse Experience (number),[6]; [9],17
same,Discontinuation due to Adverse Experience Event Rate (%),[6]; [9],22.1%
